Earlier results as cited in US9265822B2 (priority 2009, dated 2016).

Test system: 2009 H1N1 swine flu virus

Structure (SMILES) | resistance or susceptibility of the virus
CCOC(=O)C1=C[C@@H](OC(CC)CC)[C@H](NC(C)=O)[C@@H](N)C1 [oseltamivir] | susceptible
NC12CC3CC(CC(C3)C1)C2 [amantadine] | resistant
CC(=O)N[C@H]1[C@H]([C@H](O)[C@H](O)CO)OC(C(=O)O)=C[C@@H]1N=C(N)N [zanamivir] | susceptible
CC(N)C12CC3CC(CC(C3)C1)C2 (stereo not shown) [rimantadine] | resistant
